Assay results from patent US20190308956A1, “PIPERAZINE DERIVATIVES AS ANTIVIRAL AGENTS WITH INCREASED THERAPEUTIC ACTIVITY” (SERVICIO ANDALUZ DE SALUD, priority 2016, published 2019).

How the values were obtained:
HAdV5-GFP = assay: Plaque assay, HAdV5-GFP in 293β5 cells; type: cell-based; conditions: read-out: Percentage of plaque formation inhibition, HAdV5-GFP, 10 μM, 293β5 cell line
Description: 1.5. Plaque assay. For low MOI infections, active compounds were further evaluated in a plaque assay. 293β5 cells were seeded in 6-well plates at 4×10^5 cells per well in duplicate for each condition. When cells reached 80-90% confluency, they were infected with HAdV5-GFP or HAdV16-GFP (0.06 vp/cell) and rocked for 2 h at 37° C. The inoculum was removed and the cells were washed once with PBS. The cells were then carefully overlaid with 4 ml/well of equal parts of 1.6% […] Difco Agar Noble (Becton, Dickinson & Co, Sparks, MD) and 2× EMEM (BioWhittaker) supplemented with 2x penicillin/streptomycin, 2× L-glutamine and 10% FBS. The mixture also contained compound in concentrations ranging from 5 to 1 μM. Following incubation for 7 days at 37° C., plates were scanned with a Typhoon 9410 imager (GE Healthcare Life Sciences), and plaques were quantified with ImageJ.43
For the plaque assay 293β5 cells were infected with HAdV5-GFP (in the presence of compound at 10 μM) (Table 2). From this generation of compounds, our primary screening identified 4 compounds (12, 13, 22 and 25) that inhibited HAdV5-GFP plaque formation >90% compared to a control with the same volume of DMSO.

[1] = Cytotoxicity assay (alamarBlue cell viability); type: cell-based, Human; conditions: human, A549 cells, 48 h
Description: 1.4. Cytotoxicity assay. The cytotoxicity of the compounds was measured using the AlarmBlue cell viability assay (Invitrogen) according to the manufacturer's instructions. Actively dividing A549 cells were incubated with compounds for 48 h. After the incubation the alamarBlue reagent was added to the cells ( 1/10th alamarBlue reagent in culture medium) for an extra 4 h. The 50% cell cytotoxic concentration (CC50) of the molecules was calculated according to Cheng et al.42 The selectivity index (SI) was evaluated as the ratio of CC50 to IC50, where the IC50 is defined as the concentration of compound that inhibits HAdV infection by 50%.

[2] = test system: Acinetobacter baumannii strains resistant to colistine; assay: Minimal inhibitory concentration (MIC), microdilution in MHBII; type: cell-based; conditions: 5×10^5 CFU/ml, 18 h; for CMI (MIC) Ab 21R: strain Ab 21R; for CMI (MIC) Ab 21R / CMI (MIC) Ab 22P: MHBII; for CMI (MIC) Ab 22P: strain Ab 22P; for CMI (MIC) Ab 24: strain Ab 24, MHBII
Text: (§1) All of the strains used were Acinetobacter baumannii strains resistant to colistine: Resistance (R)≥4 Sensibility (S)≤2—All of these strains have been disclosed in Valencia R, Arroyo L A, Conde M, Aldana J M, Torres M J, Fernandez-Cuenca F, et al. Nosocomial outbreak of infection with pan-drug-resistant Acinetobacter baumannii in a tertiary care university hospital. Infection control and hospital epidemiology. 2009; 30(3):257-63. The specific strains used were the following: 1, 10, 11, 14, 16, 17, 19, 20, 21R, 22P, 24, 99 and 113.
Microdilution in cell medium Mueller Hinton Broth II (MHBII). This technique was carried out solely in those piperazines which presented inhibitory activity in the screening study.
We used decreasing concentrations of each piperazine derivative (from 50 μM -0.05 μM) in a concentration of 5×10^5 CFU/ml of each strain of A. baumannii in 96 well plates. These plates were incubated for 18 hours at a temperature 37° C.

[3] = test system: Acinetobacter baumannii strains resistant to colistine; assay: Screening of inhibition of bacterial growth at 50 μM; type: cell-based; conditions: 5×10^5 CFU/ml, 18 h; for Screening, growth inhibition Ab 21R: strain Ab 21R; for Screening, growth inhibition Ab 21R / Screening, growth inhibition Ab 22P: 50 μM; for Screening, growth inhibition Ab 22P: strain Ab 22P; for Screening, growth inhibition Ab 24: strain Ab 24, 50 μM
Text: as §1
Evaluation of the inhibition of the bacterial growth of the 4 families of piperazines derivatives was performed by using a final concentration of 50 μM of each piperazine derivative in a concentration of 5×10^5 CFU/ml of each strain of A. baumannii in 96-well plates.
These plates were incubated for 18 hours at 37° C.

Row | Compound | inhibition at 10 µM (HAdV5-GFP) [%] | CC50 at 48 h [1] [µM] | further results
1 | CC(C)(C)C(=O)N1CCN(C(=O)Nc2ccc([N+](=O)[O-])cc2)C(c2ccccc2)C1 (centres unmarked) [Compound 56, 1-[(4-Nitrophenyl)aminocarbonyl]-2-phenyl-4-pivaloylpiperazine] | 43.8 ± 13.2 | 102 ± 8.38 | –
2 | CC(C)(C)OC(=O)N1CCN(C(=O)Nc2ccc(C(F)(F)F)cc2)C(c2ccccc2)C1 (centres unmarked) [Compound 48, 4-tert-Butoxycarbonyl-2-phenyl-1-[(4-trifluoromethylphenyl)aminocarbonyl]piperazine] | 71.51 ± 0.11 | 42.1 ± 28.6 | –
3 | CC1CN(C(=O)OC(C)(C)C)CCN1C(=S)Nc1ccc([N+](=O)[O-])cc1 (centres unmarked) [Vip 499] | – | – | CMI (MIC) Ab 14 ([2]; strain Ab 14, MHBII): 25 µM; CMI (MIC) Ab 21R [2]: 50 µM; CMI (MIC) Ab 22P [2]: 25 µM; CMI (MIC) Ab 24 [2]: 25 µM; Screening, growth inhibition Ab 14 ([3]; strain Ab 14, 50 μM): <50 µM; Screening, growth inhibition Ab 21R [3]: <50 µM; Screening, growth inhibition Ab 22P [3]: <50 µM; Screening, growth inhibition Ab 24 [3]: <50 µM
4 | CC1CN(C(=O)c2ccccc2)CCN1C(=S)Nc1ccc([N+](=O)[O-])cc1 (centres unmarked) [Compound 22, 4-Benzoyl-2-methyl-1-[(4-nitrophenyl)aminothiocarbonyl]piperazine] | > 90 | 31.4 ± 2.82 | –
5 | COc1ccccc1NC(=O)N1CCN(C(=O)c2cc3ccccc3o2)CC1C (centres unmarked) [Compound 40, 4-(Benzofuran-2-carbonyl)-1-[(2-methoxyphenyl)aminocarbonyl]-2-methylpiperazine] | 16.4 ± 5.81 | – | –
6 | COc1ccc(NC(=O)N2CCN(C(=O)C(C)(C)C)CC2C)cc1 (centres unmarked) [Compound 19, 1-[(4-Methoxyphenyl)aminocarbonyl]-2-methyl-4-pivaloylpiperazine] | 0 | – | –
7 | CC1CN(C(=O)OC(C)(C)C)CCN1C(=S)Nc1ccc([N+](=O)[O-])cc1 (centres unmarked) [Compound 12, 4-tert-Butoxycarbonyl-2-methyl-1-[(4-nitrophenyl)aminothiocarbonyl]piperazine] | > 90 | 26.3 ± 1.59 | –
8 | CC(C)(C)OC(=O)N1CCN(C(=O)Nc2ccc(C#N)cc2)C(c2ccccc2)C1 (centres unmarked) [Compound 50, 4-tert-Butoxycarbonyl-1-[(4-cyanophenyl)aminocarbonyl]-2-phenylpiperazine] | 67.2 ± 16.5 | 91.3 ± 61.5 | –
9 | CC(C)(C)OC(=O)N1CCN(C(=O)Nc2ccc(F)cc2)C(c2ccccc2)C1 (centres unmarked) [Compound 49, 4-tert-Butoxycarbonyl-1-[(4-fluorophenyl)aminocarbonyl]-2-phenylpiperazine] | 75.84 ± 0.49 | 110 ± 8.09 | –
10 | CC1CN(C(=O)OC(C)(C)C)CCN1C(=O)Nc1ccc(C(F)(F)F)cc1 (centres unmarked) [Compound 28, 4-tert-Butoxycarbonyl-2-methyl-1-[(4-trifluoromethylphenyl)aminocarbonyl]piperazine] | 30.6 ± 14.6 | 137 ± 24.3 | –
11 | C[C@H]1CN(C(=O)OC(C)(C)C)CCN1C(=S)Nc1cc(C(F)(F)F)cc(C(F)(F)F)c1 [Compound S-592] | – | – | CMI (MIC) Ab 21R [2]: 3.12 µM; CMI (MIC) Ab 22P [2]: 12.5 µM; CMI (MIC) Ab 24 [2]: 3.12 µM; Screening, growth inhibition Ab 21R [3]: <50 µM; Screening, growth inhibition Ab 22P [3]: <50 µM; Screening, growth inhibition Ab 24 [3]: <50 µM
12 | CC1CN(C(=O)c2cc3ccccc3o2)CCN1C(=O)Nc1ccc(C#N)cc1 (centres unmarked) [Compound 34, 4-(Benzofuran-2-carbonyl)-1-[(4-cyanophenyl)aminocarbonyl]-2-methylpiperazine] | 83.2 ± 1.55 | 118 ± 30.2 | –
13 | CC1CN(C(=O)c2cc3ccccc3o2)CCN1C(=O)Nc1ccccc1Br (centres unmarked) [Compound 38, 4-(Benzofuran-2-carbonyl)-1-[(2-bromophenyl)aminocarbonyl]-2-methylpiperazine] | 55.8 ± 19.5 | – | –
14 | CC1CN(C(=O)C(C)(C)C)CCN1C(=S)Nc1ccc([N+](=O)[O-])cc1 (centres unmarked) [Compound 17, 2-Methyl-1-[(4-nitrophenyl)aminothiocarbonyl]-4-pivaloylpiperazine] | 64 ± 8.97 | – | –
15 | COc1ccc(NC(=O)N2CCN(C(=O)OC(C)(C)C)CC2C)cc1 (centres unmarked) [Compound 14, 4-tert-Butoxycarbonyl-1-[(4-methoxyphenyl)aminocarbonyl]-2-methylpiperazine] | 49.1 ± 1.39 | – | –
16 | COc1ccc(C(=O)N2CCN(C(=O)c3ccccc3)CC2C)cc1 (centres unmarked) [Compound 21, 4-Benzoyl-1-(4-methoxybenzoyl)-2-methylpiperazine] | 0 | – | –
17 | CC(C)(C)OC(=O)N1CCN(C(=O)Nc2ccccc2[N+](=O)[O-])C(c2ccccc2)C1 (centres unmarked) [Compound 51, 4-tert-Butoxycarbonyl-1-[(2-nitrophenyl)aminocarbonyl]-2-phenylpiperazine] | 100 | 82.2 ± 9.06 | –
18 | CC1CN(C(=O)c2cc3ccccc3o2)CCN1C(=O)Nc1ccccc1 (centres unmarked) [Compound 41, 4-(Benzofuran-2-carbonyl)-2-methyl-1-(phenylaminocarbonyl)piperazine] | 11.2 ± 26.5 | – | –
19 | CC1CN(C(=O)OC(C)(C)C)CCN1C(=O)Nc1ccc(Cl)cc1 (centres unmarked) [Compound 27, 4-tert-Butoxycarbonyl-1-[(4-chlorophenyl)aminocarbonyl]-2-methylpiperazine] | 62.03 ± 0.26 | 150 ± 1.01 | –
20 | CC1CN(C(=O)C(C)(C)C)CCN1C(=O)Nc1ccc([N+](=O)[O-])cc1 (centres unmarked) [Compound 18, 2-Methyl-1-[(4-nitrophenyl)aminocarbonyl]-4-pivaloylpiperazine] | 0 | – | –
21 | CC1CN(C(=O)c2cc3ccccc3o2)CCN1C(=O)Nc1ccc([N+](=O)[O-])cc1 (centres unmarked) [Compound 25, 4-(Benzofuran-2-carbonyl)-2-methyl-1-[(4-nitrophenyl)aminocarbonyl]piperazine] | > 90 | 51.1 ± 7.35 | –
22 | Cc1ccc(NC(=O)N2CCN(C(=O)OC(C)(C)C)CC2c2ccccc2)cc1 (centres unmarked) [Compound 55, 4-tert-Butoxycarbonyl-1-[(4-methylphenyl)aminocarbonyl]-2-phenylpiperazine] | 63.02 ± 0.2 | 165 ± 17.4 | –
23 | CC1CN(C(=O)c2cc3ccccc3o2)CCN1C(=O)Nc1ccc(Cl)cc1 (centres unmarked) [Compound 32, 4-(Benzofuran-2-carbonyl)-1-[(4-chlorophenyl)aminocarbonyl]-2-methylpiperazine] | 6.69 ± 11.1 | 144 ± 20.8 | –
24 | CC(C)(C)OC(=O)N1CCN(C(=O)Nc2ccc(Cl)cc2)C(c2ccccc2)C1 (centres unmarked) [Compound 47, 4-tert-Butoxycarbonyl-1-[(4-chlorophenyl)aminocarbonyl]-2-phenylpiperazine] | 86.3 ± 6.35 | 17.1 ± 4.24 | –
25 | COc1ccc(NC(=O)N2CCN(C(=O)c3ccccc3)CC2C)cc1 (centres unmarked) [Compound 24, 4-Benzoyl-1-[(4-methoxyphenyl)aminocarbonyl]-2-methylpiperazine] | 0 | – | –
26 | C[C@@H]1CN(C(=O)CC2CCCCC2)CCN1C(=S)Nc1cc(C(F)(F)F)cc(C(F)(F)F)c1 [Compound R-615] | – | – | CMI (MIC) Ab 24 [2]: 6.25 µM; Screening, growth inhibition Ab 24 [3]: <50 µM
27 | CC1CN(C(=O)c2ccccc2)CCN1C(=O)Nc1ccc([N+](=O)[O-])cc1 (centres unmarked) [Compound 23, 4-Benzoyl-2-methyl-1-[(4-nitrophenyl)aminocarbonyl]piperazine] | 71.7 ± 3.43 | – | –
28 | C[C@@H]1CN(C(=O)OC(C)(C)C)CCN1C(=S)Nc1cc(C(F)(F)F)cc(C(F)(F)F)c1 [Compound R-592] | – | – | CMI (MIC) Ab 21R [2]: 3.12 µM; Screening, growth inhibition Ab 21R [3]: <50 µM
